± gives the expanded uncertainty stated by the source.
Legend:
[1] = Molar enthalpy of transition or fusion; conditions: Crystal; DSC
[2] = Crystal; DTA

CN1C(=O)N[C@H]2NC(=O)N(C)[C@H]21
Molar enthalpy of transition or fusion [1]: 10.3 ± 0.239 kcal/mol | Normal melting temperature [2]: 303 ± 0.6 °C

Reference: the NIST ThermoML archive (doi:10.1016/j.tca.2016.01.003)
